For data set [1], the target named is Adenosine receptor A2a (Rattus norvegicus, UniProt P30543). Kind of data set: Antagonist activity at rat adenosine A2A receptor.
For data set [2], the target named is T1, Adenosine receptor A1 (Rattus norvegicus, UniProt P25099).
T1 sequence (P25099 whole entry): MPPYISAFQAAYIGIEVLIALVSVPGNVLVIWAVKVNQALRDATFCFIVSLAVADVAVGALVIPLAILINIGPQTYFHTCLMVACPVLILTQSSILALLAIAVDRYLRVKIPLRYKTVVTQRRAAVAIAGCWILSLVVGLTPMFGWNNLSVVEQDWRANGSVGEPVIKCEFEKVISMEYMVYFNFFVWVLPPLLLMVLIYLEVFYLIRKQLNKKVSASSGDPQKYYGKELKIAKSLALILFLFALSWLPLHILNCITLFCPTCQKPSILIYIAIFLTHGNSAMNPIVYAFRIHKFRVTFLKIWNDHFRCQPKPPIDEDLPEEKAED
Kind of data set: Antagonist activity at rat adenosine A1 receptor.

Another data set is described as follows: animal or person. As to conditions: Mus musculus, po, 6 h, read-out: INH.
Data set [3] deals with T2, D(3) dopamine receptor (Homo sapiens, UniProt P35462). In words: Agonist activity at dopamine D3 receptor (unknown origin) assessed as increase in GTPgammaS binding.
Data set [4] addresses T3, D(2) dopamine receptor (Homo sapiens, UniProt P14416).
Data set [5] is described as follows: Inhibition of Monoamine oxidase in MPTP-induced C57BL/6 mouse assessed as inhibition constant.
A short description of data set [6]: Displacement of [3H]-SCH23390 from D1 receptor in rat striatum incubated for 30 mins by competitive radioligand binding based scintillation counter analysis. On the technique in general: Displacement assays read how much labelled ligand stays bound in the presence of the test substance.
Data set [7] is described as follows: Displacement of [3H]-spiperone from D2 receptor in rat striatum incubated for 90 mins by competitive radioligand binding based scintillation counter analysis.
Data set [8] is described as follows: in vivo. As to conditions: rat, po, 15 mg/kg.
Description: Oral bioavailability in 6-OHDA-unilateral lesioned rat model of Parkinson's disease at 15 mg/kg
Data set [9] is described as follows: Agonist activity at rat mGlu4 receptor assessed as increase in calcium flux. On the technique in general: A change in cytosolic calcium serves as a functional read-out for many receptors and channels.
The nature of data set [10]: Plasma concentration in 6-OHDA-unilateral lesioned mouse model of Parkinson's disease at 50 mg/kg,ip measured after 4 hrs.
Data set [11] is described as follows: Drug concentration in 6-OHDA-unilateral lesioned mouse model of Parkinson's disease assessed as brain concentration at 50 mg/kg,ip measured after 4 hrs.
Data set [12] in a line: Metabolic stability at human liver microsomes assessed as half life.
Data set [13] can be described thus: Metabolic stability at human liver microsomes assessed as intrinsic clearance. A general note: Liver microsomes are a subcellular fraction often used to study metabolism.
For data set [14], the target named is T4, Amine oxidase [flavin-containing] B (Homo sapiens, UniProt P27338).
T4 sequence (P27338 whole entry): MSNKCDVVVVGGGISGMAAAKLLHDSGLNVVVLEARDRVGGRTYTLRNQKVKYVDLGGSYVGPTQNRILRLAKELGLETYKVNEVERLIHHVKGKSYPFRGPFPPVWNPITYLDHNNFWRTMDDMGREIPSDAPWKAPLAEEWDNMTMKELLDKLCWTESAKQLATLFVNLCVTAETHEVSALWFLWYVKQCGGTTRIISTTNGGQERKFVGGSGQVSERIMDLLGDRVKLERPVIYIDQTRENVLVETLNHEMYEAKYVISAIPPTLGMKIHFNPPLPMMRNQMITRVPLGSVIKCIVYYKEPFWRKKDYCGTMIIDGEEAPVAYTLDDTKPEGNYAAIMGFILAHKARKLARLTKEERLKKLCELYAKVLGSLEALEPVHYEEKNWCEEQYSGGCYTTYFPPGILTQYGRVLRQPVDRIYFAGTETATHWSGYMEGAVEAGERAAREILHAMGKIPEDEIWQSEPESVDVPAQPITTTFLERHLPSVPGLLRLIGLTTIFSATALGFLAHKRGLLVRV
In words: Inhibition of human MAO-B.

The target of data set [15] is Adenosine receptor A2a (Homo sapiens, UniProt P29274). In words: Antagonist activity at human adenosine A2A receptor.
The nature of data set [16]: Half life in rat at 3 mg/kg,po. The settings on record: in vivo.
Data set [17] is described as follows: in vivo. The settings on record: rat, po, 3 mg/kg.
Data set [18] concerns the target T5, Adenosine receptor A1 (Homo sapiens, UniProt P30542).
T5 sequence (P30542 whole entry): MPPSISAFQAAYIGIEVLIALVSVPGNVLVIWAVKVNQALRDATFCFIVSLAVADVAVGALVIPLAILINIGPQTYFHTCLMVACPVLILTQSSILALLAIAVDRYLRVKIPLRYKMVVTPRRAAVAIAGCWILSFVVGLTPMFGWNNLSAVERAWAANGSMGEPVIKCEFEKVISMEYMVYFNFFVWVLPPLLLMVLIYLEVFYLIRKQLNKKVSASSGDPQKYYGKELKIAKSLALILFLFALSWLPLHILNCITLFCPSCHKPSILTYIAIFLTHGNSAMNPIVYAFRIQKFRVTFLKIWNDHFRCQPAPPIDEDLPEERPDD
Description: Antagonist activity at human adenosine A1 receptor

Data set [19] in a line: Agonist activity at D2 receptor in mouse MN9D cells assessed as increase in GTPgammaS binding.
The nature of data set [20]: Agonist activity at D3 receptor in mouse MN9D cells assessed as increase in GTPgammaS binding.
In data set [21] the target is T3, D(2) dopamine receptor. The source holds these as a separate data set.
Description: Agonist activity at dopamine D2 receptor (unknown origin)
For data set [22], the target named is T2, D(3) dopamine receptor. In words: Agonist activity at dopamine D3 receptor (unknown origin).
Data set [23] can be described thus: Inhibition of c-Jun phosphorylation in streptozotocin stimulated rat INS1 cells using TMB as substrate incubated for 16 hrs by microplate reader assay. The settings on record: INS1, 16 h.

The results in this text go back to ChEMBL document CHEMBL5126552, “Discovery of small-molecule compounds and natural products against Parkinson's disease: Pathological mechanism and structural modification” (Eur J Med Chem, 2022).

T3 sequence (P14416 whole entry): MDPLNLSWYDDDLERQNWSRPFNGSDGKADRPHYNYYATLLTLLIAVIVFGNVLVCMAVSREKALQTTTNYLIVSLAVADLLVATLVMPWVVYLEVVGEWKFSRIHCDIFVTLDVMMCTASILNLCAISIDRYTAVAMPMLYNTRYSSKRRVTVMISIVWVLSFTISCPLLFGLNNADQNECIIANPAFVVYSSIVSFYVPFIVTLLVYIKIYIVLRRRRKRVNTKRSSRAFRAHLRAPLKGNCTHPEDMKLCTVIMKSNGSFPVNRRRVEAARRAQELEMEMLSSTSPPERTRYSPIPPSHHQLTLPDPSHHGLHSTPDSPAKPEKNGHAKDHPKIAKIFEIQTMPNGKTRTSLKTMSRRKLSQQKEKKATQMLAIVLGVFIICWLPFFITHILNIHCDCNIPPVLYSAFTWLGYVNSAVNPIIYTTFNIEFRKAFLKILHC
T2 sequence (P35462 whole entry): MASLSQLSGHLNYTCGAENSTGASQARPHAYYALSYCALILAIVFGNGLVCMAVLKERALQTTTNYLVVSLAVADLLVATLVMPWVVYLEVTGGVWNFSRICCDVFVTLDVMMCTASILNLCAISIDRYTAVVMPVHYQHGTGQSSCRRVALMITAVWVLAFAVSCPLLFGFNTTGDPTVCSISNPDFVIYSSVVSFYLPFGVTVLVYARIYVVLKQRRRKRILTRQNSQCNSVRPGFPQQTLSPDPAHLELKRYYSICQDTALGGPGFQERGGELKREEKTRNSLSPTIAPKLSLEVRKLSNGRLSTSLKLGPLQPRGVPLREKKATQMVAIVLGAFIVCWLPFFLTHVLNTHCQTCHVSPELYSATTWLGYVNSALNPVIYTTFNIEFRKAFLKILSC
Chain of Adenosine receptor A2a (Rattus norvegicus, UniProt P30543) (P30543 whole entry): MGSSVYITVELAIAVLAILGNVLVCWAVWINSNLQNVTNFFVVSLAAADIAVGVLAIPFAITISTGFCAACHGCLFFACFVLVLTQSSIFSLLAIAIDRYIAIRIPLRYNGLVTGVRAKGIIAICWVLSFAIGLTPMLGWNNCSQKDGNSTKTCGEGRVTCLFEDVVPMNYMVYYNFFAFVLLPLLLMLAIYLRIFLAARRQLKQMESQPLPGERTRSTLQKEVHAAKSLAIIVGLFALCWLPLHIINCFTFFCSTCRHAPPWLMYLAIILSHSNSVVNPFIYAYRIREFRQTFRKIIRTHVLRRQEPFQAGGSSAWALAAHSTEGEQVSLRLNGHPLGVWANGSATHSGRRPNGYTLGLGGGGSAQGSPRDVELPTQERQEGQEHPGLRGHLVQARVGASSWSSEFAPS
Chain of Adenosine receptor A2a (Homo sapiens, UniProt P29274) (P29274 whole entry): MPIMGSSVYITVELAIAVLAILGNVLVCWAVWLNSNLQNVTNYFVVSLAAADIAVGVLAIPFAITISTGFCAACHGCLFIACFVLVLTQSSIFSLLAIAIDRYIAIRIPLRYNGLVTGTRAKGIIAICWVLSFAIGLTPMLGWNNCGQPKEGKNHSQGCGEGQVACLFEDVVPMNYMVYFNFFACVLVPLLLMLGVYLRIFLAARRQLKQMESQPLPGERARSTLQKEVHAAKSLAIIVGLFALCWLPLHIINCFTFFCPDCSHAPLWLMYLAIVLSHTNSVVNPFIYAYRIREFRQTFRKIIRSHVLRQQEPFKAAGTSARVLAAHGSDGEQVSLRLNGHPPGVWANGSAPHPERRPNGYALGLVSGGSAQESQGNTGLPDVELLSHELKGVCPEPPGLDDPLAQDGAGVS

With `Cc1ccc(-c2cc(-c3cccc(C(=O)N4CCCCC4)c3)nc(N)n2)o1`, the inhibition constant (Ki) (commonly a dissociation constant, usually derived from enzyme kinetics or from competition with a known ligand) at Adenosine receptor A2a [1] worked out at 9.54 nM; on Adenosine receptor A1 [2], 6.34 nM.
Take `O=C(CCN1CCN(c2cccc(C(F)(F)F)c2)CC1)c1cc(O)c(O)c([N+](=O)[O-])c1`: in “animal or person”, the inhibition in vivo at 30 mg/kg amounted to 74%.
Regarding `CCCN(CCN1CCN(c2ccc3c(c2)[nH]c2ccccc23)CC1)[C@H]1CCc2c(O)cccc2C1`, the half-maximal effective concentration (EC50) (usually the concentration that produces a half-maximal response) on D(3) dopamine receptor [3] amounted to 0.87 nM; on D(2) dopamine receptor [4] it was 0.23 nM.
As for `Nc1nc(NC[C@H]2CCCN2Cc2ccnc(Cl)c2)nc2nc(-c3ccco3)nn12`, the results for the Ki at Adenosine receptor A2a [1] and on Adenosine receptor A1 [2] were 10 nM and over 250 nM, respectively.
With `CC1=C(C)C(=O)c2cc(C)ccc2C1=O`, in data set [5], the inhibition constant Ki is 6000 nM.
In the case of `C#CCN1CCC[C@H]2c3[nH]c4ccccc4c3CC[C@@H]21`, the inhibition constant Ki in data set [6] turned out to be 2.15 nM; in data set [7], 1.09 nM.
Turning to `Fc1ccc(Nc2n[nH]c3cccnc23)cc1Cl`, the bioavailability – broadly, the share of a dose that reaches the circulation, judged against a reference dose that is usually intravenous – in “in vivo [8]” is 95%. In addition, the EC50 in [9] amounted to 46 nM.
Regarding `Cc1cc(Oc2nccc3occc23)ccc1-c1c(C)c(=O)[nH]c(=O)n1C`, the concentration at 4 h in [10] and in [11] was 100 µM each time.
On to `CO[C@@H]1CCN(c2cccc(-c3nc(-n4nc(C)cc4C)nc(N)c3C#N)n2)C1`, for which, in [12], the half-life (as a rule, the time needed for the level to fall by half in the phase considered) is 53 min. The CLint scaled (commonly the rate of metabolic loss divided by the concentration) in data set [13] is 34 mL/min/kg.
As to `COc1ccc(/C(C)=N/NC(=O)c2cc(-c3ccccc3)on2)cc1OC`, the IC50 (commonly the concentration that inhibits the measured activity by half) in data set [14] was 5.9 nM.
Take `COC[C@H]1CCCN1c1cc(Nc2ccccn2)nc(-n2cccn2)n1`: at Adenosine receptor A2a [15], the affinity corresponds to a Ki of 0.22 nM.
As for `Cn1nc(C(F)(F)F)c(CN2CCN(c3nc(N)n4nc(-c5ccco5)nc4n3)CC2)c1Cl`, the half-life in [16] is 30 min. Further, in “in vivo [17]”, the bioavailability came out at 7%.
On to `Nc1nc(N2CCN3CCC[C@@H]3C2)cc2nc(-c3ccco3)nn12`, for which the Ki at Adenosine receptor A1 [18] amounted to 1100 nM; on Adenosine receptor A2a [15], 63 nM.
For the molecule `CCCN(CCN1CCN(C(=O)c2cc3ccccc3[nH]2)CC1)[C@H]1CCc2nc(N)sc2C1`, the EC50 was determined as 2.96 nM in [19] and 1.26 nM in data set [20].
At Adenosine receptor A1 [18], `Cc1cccc(Nc2nc(NCCCO)nc3c2cnn3-c2ccccc2)c1` displayed a Ki of over 540 nM.
On to `CCCN(CCN1CCN(c2ccccc2)CC1)[C@H]1CCc2ccc(O)cc2C1`, for which the figures for the concentration giving a half-maximal response (EC50) at D(2) dopamine receptor [21] and at D(3) dopamine receptor [22] were 9.98 nM and 2.91 nM, respectively.
In the case of `Cc1ccc(-c2ncn(-c3ccc(Nc4nccc(-c5cccc(N6CCOCC6)c5)n4)cc3)n2)cn1`, the IC50 in [23] amounted to 216 nM.
For the molecule `CCCN1CCC[C@H]2c3[nH]c4ccccc4c3CC[C@@H]21`, the inhibitory constant (Ki) in data set [6] is 19.8 nM; in data set [7], 1.31 nM.
Molecule `C/C(=N\NC(=O)c1cc(-c2ccccc2)on1)c1ccc(C)cc1` had an IC50 in data set [14] of 5.1 nM.
In the case of `CCCN(CCN1CCN(c2ccc(-c3ccccn3)nc2)CC1)[C@H]1CCc2nc(N)sc2C1`, a half-maximal response at D(2) dopamine receptor [21] (EC50) required 51.6 nM.
Take `CNCc1cc(=O)oc2c(O)c(O)ccc12`: the IC50 in [14] was 12400 nM.
For the molecule `CCCN(CCN1CCN(c2ccc3[nH]ccc3c2Cl)CC1)[C@H]1CCc2nc(N)sc2C1`, the EC50 was found to be 114 nM in [19] and 0.26 nM in data set [20].
